Tests used:
[1] = biological target: T1, cytoplasmic dynein purified from bovine brain (Bos taurus, UniProt A0A3Q1NEU9); experiment: Microtubule surface gliding assay, dynein; assay type: biochemical; conditions: for dynein-dependent microtubule movement (gliding velocity): 100 μM; for IC50: dynein-dependent microtubule gliding in vitro, read-out: IC50 of microtubule gliding inhibition
T1 construct: Cytoplasmic dynein was purified from bovine brain tissue; from tissue; host or cells: bovine brain
T1 sequence (A0A3Q1NEU9 1-4657): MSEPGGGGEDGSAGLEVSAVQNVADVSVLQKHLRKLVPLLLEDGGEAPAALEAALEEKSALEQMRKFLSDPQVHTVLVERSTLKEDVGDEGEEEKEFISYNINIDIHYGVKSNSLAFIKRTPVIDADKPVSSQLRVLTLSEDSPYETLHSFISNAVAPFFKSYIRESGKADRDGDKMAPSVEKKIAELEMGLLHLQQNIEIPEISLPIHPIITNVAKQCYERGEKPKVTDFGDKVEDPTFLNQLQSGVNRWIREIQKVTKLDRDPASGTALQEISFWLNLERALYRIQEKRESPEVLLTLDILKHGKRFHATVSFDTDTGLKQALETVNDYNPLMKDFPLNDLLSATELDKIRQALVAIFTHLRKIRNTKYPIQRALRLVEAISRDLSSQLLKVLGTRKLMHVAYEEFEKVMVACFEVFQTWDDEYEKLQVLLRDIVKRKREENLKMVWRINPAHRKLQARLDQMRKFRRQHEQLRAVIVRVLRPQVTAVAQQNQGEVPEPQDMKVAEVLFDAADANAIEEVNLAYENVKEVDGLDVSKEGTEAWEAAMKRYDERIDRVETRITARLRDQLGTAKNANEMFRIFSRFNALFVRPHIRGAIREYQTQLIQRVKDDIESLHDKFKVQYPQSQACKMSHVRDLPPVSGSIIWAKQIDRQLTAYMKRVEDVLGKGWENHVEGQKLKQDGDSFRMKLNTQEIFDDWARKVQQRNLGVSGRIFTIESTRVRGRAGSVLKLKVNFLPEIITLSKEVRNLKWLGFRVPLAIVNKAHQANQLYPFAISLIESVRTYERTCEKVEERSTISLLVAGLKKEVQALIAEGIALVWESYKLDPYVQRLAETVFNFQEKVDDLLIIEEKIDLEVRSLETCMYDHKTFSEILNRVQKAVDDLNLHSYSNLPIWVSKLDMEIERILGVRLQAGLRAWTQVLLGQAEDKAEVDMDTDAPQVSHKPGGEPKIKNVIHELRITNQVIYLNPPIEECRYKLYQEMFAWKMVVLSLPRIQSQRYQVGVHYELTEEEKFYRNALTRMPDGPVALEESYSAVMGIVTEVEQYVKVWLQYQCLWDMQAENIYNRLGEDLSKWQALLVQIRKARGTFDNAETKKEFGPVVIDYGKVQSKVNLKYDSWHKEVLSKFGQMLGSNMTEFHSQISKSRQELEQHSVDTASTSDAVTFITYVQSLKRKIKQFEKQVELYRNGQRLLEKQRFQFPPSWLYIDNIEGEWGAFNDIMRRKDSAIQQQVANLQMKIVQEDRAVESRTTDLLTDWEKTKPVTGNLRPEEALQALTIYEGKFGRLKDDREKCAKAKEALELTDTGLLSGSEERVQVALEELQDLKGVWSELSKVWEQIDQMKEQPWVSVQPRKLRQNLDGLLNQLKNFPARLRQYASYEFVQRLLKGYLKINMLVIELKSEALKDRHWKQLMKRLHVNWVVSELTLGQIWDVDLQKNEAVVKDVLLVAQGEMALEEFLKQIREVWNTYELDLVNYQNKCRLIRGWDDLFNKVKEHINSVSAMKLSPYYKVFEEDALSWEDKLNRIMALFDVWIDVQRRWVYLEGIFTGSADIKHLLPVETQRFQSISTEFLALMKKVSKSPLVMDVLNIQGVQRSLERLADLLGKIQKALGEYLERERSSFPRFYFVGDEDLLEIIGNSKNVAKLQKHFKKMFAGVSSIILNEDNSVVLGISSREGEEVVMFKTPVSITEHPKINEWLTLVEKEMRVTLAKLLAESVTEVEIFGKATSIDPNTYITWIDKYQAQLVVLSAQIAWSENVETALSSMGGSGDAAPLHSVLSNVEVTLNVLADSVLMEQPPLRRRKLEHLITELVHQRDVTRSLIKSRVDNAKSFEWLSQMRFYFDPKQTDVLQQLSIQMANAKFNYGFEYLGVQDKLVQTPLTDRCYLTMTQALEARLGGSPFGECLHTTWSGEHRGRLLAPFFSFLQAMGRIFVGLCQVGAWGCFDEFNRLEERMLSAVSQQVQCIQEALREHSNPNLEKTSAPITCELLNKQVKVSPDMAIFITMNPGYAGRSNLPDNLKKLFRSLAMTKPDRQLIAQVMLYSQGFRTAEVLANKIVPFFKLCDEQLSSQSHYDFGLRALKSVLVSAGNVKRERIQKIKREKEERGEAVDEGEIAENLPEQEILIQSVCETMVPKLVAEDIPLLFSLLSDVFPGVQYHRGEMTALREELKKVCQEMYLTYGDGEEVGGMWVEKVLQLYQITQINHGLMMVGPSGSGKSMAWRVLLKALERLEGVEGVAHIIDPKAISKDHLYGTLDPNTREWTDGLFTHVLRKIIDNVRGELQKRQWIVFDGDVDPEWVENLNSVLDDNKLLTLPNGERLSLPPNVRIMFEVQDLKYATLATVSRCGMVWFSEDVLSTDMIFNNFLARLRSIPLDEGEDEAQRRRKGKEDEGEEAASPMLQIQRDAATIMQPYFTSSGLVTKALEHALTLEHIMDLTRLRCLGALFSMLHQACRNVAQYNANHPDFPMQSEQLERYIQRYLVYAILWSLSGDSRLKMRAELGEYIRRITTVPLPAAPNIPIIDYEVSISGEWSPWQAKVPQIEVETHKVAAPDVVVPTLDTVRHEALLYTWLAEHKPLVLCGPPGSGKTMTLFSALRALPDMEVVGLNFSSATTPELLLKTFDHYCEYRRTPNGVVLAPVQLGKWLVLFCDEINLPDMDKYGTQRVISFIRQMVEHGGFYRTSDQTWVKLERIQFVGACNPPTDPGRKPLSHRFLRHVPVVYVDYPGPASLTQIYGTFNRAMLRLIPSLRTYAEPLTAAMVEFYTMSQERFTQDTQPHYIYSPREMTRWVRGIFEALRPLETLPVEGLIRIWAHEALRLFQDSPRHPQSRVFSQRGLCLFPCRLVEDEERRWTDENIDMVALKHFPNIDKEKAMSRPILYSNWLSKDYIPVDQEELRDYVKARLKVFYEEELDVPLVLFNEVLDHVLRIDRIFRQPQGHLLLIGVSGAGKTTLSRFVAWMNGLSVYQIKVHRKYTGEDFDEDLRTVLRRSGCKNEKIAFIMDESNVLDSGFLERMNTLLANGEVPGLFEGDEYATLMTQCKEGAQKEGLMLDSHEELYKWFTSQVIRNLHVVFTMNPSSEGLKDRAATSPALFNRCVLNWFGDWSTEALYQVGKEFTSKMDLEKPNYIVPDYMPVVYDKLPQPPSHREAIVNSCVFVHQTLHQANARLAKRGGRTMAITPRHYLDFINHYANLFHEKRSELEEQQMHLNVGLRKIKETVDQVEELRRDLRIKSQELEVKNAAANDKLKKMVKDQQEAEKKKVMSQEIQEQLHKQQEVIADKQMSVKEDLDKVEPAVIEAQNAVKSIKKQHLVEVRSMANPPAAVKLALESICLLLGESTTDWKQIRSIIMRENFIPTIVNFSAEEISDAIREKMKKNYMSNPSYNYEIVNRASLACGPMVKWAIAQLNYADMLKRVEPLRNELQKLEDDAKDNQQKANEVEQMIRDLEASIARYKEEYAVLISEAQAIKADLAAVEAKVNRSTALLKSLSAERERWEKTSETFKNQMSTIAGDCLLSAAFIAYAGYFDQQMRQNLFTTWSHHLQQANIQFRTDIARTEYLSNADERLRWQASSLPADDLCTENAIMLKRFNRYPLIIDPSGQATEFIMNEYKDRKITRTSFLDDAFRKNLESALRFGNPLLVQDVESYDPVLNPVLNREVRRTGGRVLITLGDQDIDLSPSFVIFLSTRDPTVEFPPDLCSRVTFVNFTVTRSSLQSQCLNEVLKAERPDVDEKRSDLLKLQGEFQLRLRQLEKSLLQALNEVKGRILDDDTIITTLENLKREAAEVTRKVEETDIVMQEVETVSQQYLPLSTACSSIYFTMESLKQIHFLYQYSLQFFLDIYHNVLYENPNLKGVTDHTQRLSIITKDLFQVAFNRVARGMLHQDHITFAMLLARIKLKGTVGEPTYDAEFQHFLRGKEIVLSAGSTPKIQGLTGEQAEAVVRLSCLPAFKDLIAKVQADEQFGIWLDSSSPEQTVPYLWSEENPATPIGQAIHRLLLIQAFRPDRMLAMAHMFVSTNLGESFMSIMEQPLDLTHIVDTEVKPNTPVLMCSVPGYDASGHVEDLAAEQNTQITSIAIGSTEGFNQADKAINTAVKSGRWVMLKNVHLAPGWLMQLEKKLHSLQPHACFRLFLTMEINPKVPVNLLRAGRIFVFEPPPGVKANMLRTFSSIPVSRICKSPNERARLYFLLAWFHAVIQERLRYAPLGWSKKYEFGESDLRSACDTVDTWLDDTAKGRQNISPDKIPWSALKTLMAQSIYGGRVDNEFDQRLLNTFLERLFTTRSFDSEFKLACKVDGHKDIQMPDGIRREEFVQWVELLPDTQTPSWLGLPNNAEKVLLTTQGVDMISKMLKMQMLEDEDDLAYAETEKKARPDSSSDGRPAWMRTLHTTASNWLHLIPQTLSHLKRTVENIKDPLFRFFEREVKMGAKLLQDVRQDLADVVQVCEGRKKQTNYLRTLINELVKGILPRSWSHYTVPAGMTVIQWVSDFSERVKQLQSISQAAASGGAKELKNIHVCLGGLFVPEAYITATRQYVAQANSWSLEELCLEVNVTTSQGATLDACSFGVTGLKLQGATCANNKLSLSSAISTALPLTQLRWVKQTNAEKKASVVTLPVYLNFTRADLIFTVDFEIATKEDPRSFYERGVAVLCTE
Experimental: To more directly examine whether cytoplasmic dynein is the direct target of the ciliobrevins, we evaluated their effects on dynein-dependent microtubule gliding in vitro. Cytoplasmic dynein was purified from bovine brain tissue, adsorbed onto glass slides, and then incubated with fluorescently labeled microtubules and ATP in the presence or absence of these compounds. We then imaged and quantified the resulting microtubule gliding velocities by epifluorescence microscopy.
Cytoplasmic dynein was purified from bovine brains as described by Bingham et al. [Methods Enzymol. 298, 171 (1998)]. K560, a 560-amino acid N-terminal fragment of human conventional kinesin (kinesin-1) with a C-terminal His-tag, was expressed in bacteria and purified as described by Woehlke et al., [Cell 90, 207 (1997)]. Motility assays were performed on a Zeiss Axiovert 200M wide-field microscope equipped with a Zeiss 100×/1.45 NA α-Plan-Fluar objective. Data were captured with an EM-CCD camera (iXon DU-897, Andor Technology) with a 0.3-second exposure time and frame rate of 0.5 second^−1. Microtubule gliding assays were performed as described by Kapoor and Mitchison [Proc. Natl. Acad. Sci. U.S.A. 96, 9106 (1999)] with some modifications. An approximately 6 μL flow chamber was filled with motor protein (100 μg/mL dynein or 50 μg/mL K560) in motor dilution buffer (80 mM Pipes, 1 mM EGTA, 2 mM MgCl2, 2 mM DTT, 50 μM ATP, pH 6.8 with KOH). After a 2-minute incubation, excess protein was washed out with […] of PEM80 buffer (80 mM Pipes, 1 mM EGTA, 2 mM MgCl2, pH 6.8 with KOH) and the surface was blocked against non-specific microtubule binding by filling the chamber with blocking protein (0.5 mg/mL α-casein for dynein experiments and 1 mg/mL BSA for K560 experiments) in motor dilution buffer. After 2 minutes the chamber was perfused with 18 μL of reaction mix (PEM80, 40 mM KCl, blocking protein [1 mg/mL a-casein for dynein experiments; 1 mg/mL BSA for K560 experiments], 2 mM MgATP, 20 μM taxol, 0.1 μM rhodamine-labeled microtubules, oxygen depletion system [4 mM DTT, 2 mM glucose, 40 μg/mL glucose oxidase, 35 μg/mL catalase], 2.5% DMSO, and test compounds as appropriate). The flow chamber was then sealed with valap. After allowing the microtubules to bind to the surface for 5 minutes, the gliding microtubules were visualized by time-lapse fluorescence microscopy. Velocities were measured by kymography using Metamorph software (Molecular Devices), and the velocity for each microtubule was determined from the total distance during the time observed.
For washout experiments, the chamber was left unsealed after the initial reaction mix containing inhibitor was added. Microtubules were allowed to bind to the surface for 5 minutes, and then a time-lapse movie was acquired. The inhibitor was then washed out of the chamber by flowing in 20 μL of fresh reaction mix (PEM80, 40 mM KCl, 1 mg/mL α-casein, 2 mM MgATP, 20 μM taxol, oxygen depletion system, and 2.5% DMSO) without additional microtubules or inhibitor. The chamber was sealed, and additional time-lapse movies were acquired.

[2] = system: ciliary Gli2 in Shh-EGFP cells; experiment: Quantitative assessment of Hh ligand-dependent Gli2 trafficking; assay type: cell-based; conditions: 30 μM, 4 hours; for basal Gli2 concentrations in the primary cilium: without Shh-N; for Basal and Shh-N-induced levels of ciliary Gli2: with or without 10% Shh-N-conditioned medium
Experimental: Shh-EGFP cells were seeded into 24-well plates containing poly-D-lysine-coated 12-mm glass coverslips at a density of 65,000 cells/well and cultured for 24 hours in DMEM containing 10% calf serum, 100 U/mL penicillin, and 0.1 mg/mL streptomycin. The cells were then transferred into DMEM containing 0.5% calf serum and the antibiotics described above for 16 hours to promote primary cilia formation. The cells were next transferred into DMEM containing 0.5% calf serum, antibiotics, and either individual compounds at a 30 μM concentration or 0.3% DMSO. Each compound or vehicle treatment was conducted in the presence or absence of 10% Shh-N-conditioned medium, and the cells were cultured under these conditions for 4 hours. The cells were subsequently fixed in PBS containing 4% paraformaldehyde for 10 minutes at room temperature, washed 3×5 minutes in PBS containing 50 mM glycine, permeabilized in PBS containing 0.3% Triton X-100 […], and then blocked overnight at 4° C. in PBS containing 5% normal donkey serum, 0.1% Triton X-100, and 0.05% sodium azide. After blocking was complete, the coverslips were incubated in blocking buffer containing rabbit polyclonal anti-Arl13b antibody (1:3000 dilution), goat polyclonal anti-Gli2 antibody (1:50 dilution; R & D Systems, AF3635), and mouse monoclonal anti-γ-tubulin (1:200 dilution; Sigma-Aldrich, T5326) for 90 minutes at room temperature. The cells were then washed 4×5 minutes with PBS containing 0.1% Triton X-100 and incubated in blocking buffer containing DyLight 488-conjugated donkey polyclonal anti-goat IgG antibody (3 μg/mL; Jackson ImmunoResearch, 705-485-147), DyLight 594-conjugated donkey polyclonal […] IgG antibody (3 μg/mL; Jackson ImmunoResearch, 715-515-151), and DyLight 649-conjugated donkey polyclonal […] IgG antibody (3 μg/mL; Jackson ImmunoResearch, 711-495-152) for 60 minutes. Following, this secondary antibody incubation, nuclei were stained by incubating the cells 2×10 minutes with PBS containing 0.1% Triton X-100 and 0.5 μg/mL DAPI and washing them 2×5 minutes with PBS. The coverslips were subsequently mounted onto slides using Prolong Gold Antifade Reagent (Invitrogen) and imaged using a Plan Apochromat 63×/1.4 NA oil immersion objective on a Zeiss Axio1mager Z1 upright microscope equipped with an LSM700 laser scanning confocal head. Ciliary Gli2 levels were quantified by determining total pixel intensity within a 0.69 μm-diameter circle at the distal tip of the axoneme and subtracting background fluorescence in an adjacent region of equivalent size. At least 25 cilia were analyzed to determine the average ciliary Gli2 level for each experimental condition.

| dynein-dependent microtubule movement (gliding velocity) [1] | IC50 [1] [µM] | Structure (SMILES) | basal Gli2 concentrations in the primary cilium [2] | Basal and Shh-N-induced levels of ciliary Gli2 [2] |
| --- | --- | --- | --- | --- |
| at least five-fold | 30 | N#C/C(C(=O)c1ccc(Cl)cc1Cl)=C1\NC(=O)c2ccccc2N1 [Example 1, 3-(2,4-dichlorophenyl)-3-oxo-2-(4-oxo-3,4-dihydroquinazolin-2(1H)-ylidene)propanenitrile] | increased basal Gli2 concentrations in this signaling organelle to levels comparable to that induced by Shh-N | – |
| minimal effects | – | N#C/C(C(=O)c1ccc(Cl)cc1)=C1\NC(=O)c2ccccc2N1 [Example 2, 3-(4-chlorophenyl)-3-oxo-2-(4-oxo-3,4-dihydroquinazolin-2(1H)-ylidene)propanenitrile] | – | unchanged |
| minimal effects | – | N#C/C(C(=O)c1ccccc1)=C1\NC(=O)c2ccccc2N1 [Example 16, 3-oxo-2-(4-oxo-3,4-dihydroquinazolin-2(1H)-ylidene)-3-phenylpropanenitrile] | – | unchanged |
| at least five-fold | 40 | N#C/C(C(=O)c1ccc(Cl)cc1Cl)=C1\NC(=O)c2ccc(Cl)cc2N1 [Example 31, 2-(7-chloro-4-oxo-3,4-dihydroquinazolin-2(1H)-ylidene)-3-(2,4-dichlorophenyl)-3-oxo-propanenitrile] | increased basal Gli2 concentrations in this signaling organelle to levels comparable to that induced by Shh-N | – |

Reference: patent US9145376B2, “Quinazolinone inhibitors of dynein” (The Rockefeller University, priority 2011, dated 2015)
